The source of these data is patent US8486123B2, “Micro-organism-reducing device” (bredent medical GmbH & Co., KG, priority 2003, dated 2013).

For series [1], the system named is all examined microorganisms. Nature of the series: in vitro reduction of microorganisms by methylene blue solutions in culture medium. The note with it: culture medium being used. In kind it is cell-based.
A further series has as its system Gram positive bacteria. Nature of the series: in vitro reduction of Gram positive bacteria by methylene blue solutions. In kind it is cell-based. An excerpt:
Methylene blue solutions reduce almost all Gram positive bacteria in a concentration of 25-44 μmol in vitro.

For the next series, the system named is Gram negative germs. As to the kind of experiment: complete reduction of Gram negative germs. The note with it: compared with 25-44 μmol for Gram positive bacteria. The series is classed as cell-based. The source says:
(§1) Completely reducing Gram negative germs requires 3-30 times higher concentrations. P. aeruginosa was reduced […] by 3.5 log10 CFU at a concentration of 200˜mol and an energy density of 100 mW/cm^2.

A further series relates to P. aeruginosa. As to the kind of experiment: photodynamic reduction of P. aeruginosa. The note with it: concentration of 200˜mol; energy density of 100 mW/cm^2. In kind it is cell-based.
From the text: as §1

Series [2] in a line: penetration depth of MB solutions into normal oral mucosa. The note with it: after 10-min incubation time. The source says:
The clinical application of PDT is possible since the stain solutions selectively color cell systems, while the interaction with the epithelium is very limited. […] Furthermore, the life expectancy of the active radicals and their precursors is microseconds, so that it is practically assured that there are no concomitant destructive effects in healthy tissue due to diffusion, since there is not enough time for this.

In another series the test system is colon tumors. The note with it: 20 μg/mL, intratumorally applied, without irradiation; cited from earlier work.
Series [3] relates to Gram positive and Gram negative bacteria. As to the kind of experiment: dark toxicity of the stains for bacteria. The series is classed as cell-based. The note with it: TB compared with MB, without irradiation. Here is the method:
The observed dark toxicity was higher for toluidine blue (TB) than for methylene blue (MB). This is consistent with the distribution coefficient P that was determined to be 0.33 for TB and 0.11 for MB.
While dark toxicity for Gram positive bacteria was nearly unrelated to type, the dark toxicity for Gram negative bacteria is quite clearly a function of type and specifically corresponds to the trans-membrane permeability coefficient of the exterior membrane of Gram negative bacteria.
Dark toxicity was a function of both the concentration and the incubation period prior to irradiation.

A short description of series [4]: distribution coefficient P. The series is classed as physicochemical.

In the case of `CN(C)c1ccc2nc3ccc(=[N+](C)C)cc-3sc2c1` [Methylene blue, phenothiazin-5-ium, 3,7-bis(dimethylamino)-chloride], the “reduction of the number of microorganisms in the culture medium” value in series [1] was “able to reduce the number of all examined microorganisms”. Moreover, in the series with Gram positive bacteria, the “concentration that reduces almost all Gram positive bacteria” value fell in the range of 25 to 44 µmol. Also, the “concentration needed for completely reducing Gram negative germs, relative to Gram positive bacteria” value in the series on Gram negative germs is listed as 3-30 times higher. Further, the “reduction of P. aeruginosa” value in the series on P. aeruginosa is 3.5 log10 CFU. Besides, in series [2], the “penetration depth into the epithelium” value is recorded as 1-2 exterior layers of cells. Besides, the “destruction of colon tumors by the substance alone” value in the series with colon tumors is recorded as “not destroyed”.

Take `Cc1cc2nc3ccc(N(C)C)cc3[s+]c2cc1N.[Cl-]` [TB, toluidine blue]: the observed dark toxicity result in series [3] is “higher”. Besides, the “distribution coefficient P” value in series [4] is on record as 0.33.
